{"source": "ChEMBL document CHEMBL5620344", "about": "“Discovery of novel 5-(2-hydroxyphenyl)-2-phthalide-3(3H)-pyrazolones as balanced multifunctional agents against Alzheimer's disease” (Eur J Med Chem, 2023)", "key": {"[1]": {"experiment": "Ratio of AUC in brain to plasma in BALB/c at 30 mg/kg, ig", "assay_type": "ADME, organism-based", "details": "mouse, po"}, "[2]": {"system": "BV-2", "experiment": "Anti-neuroinflammatory activity against LPS-stimulated mouse BV-2 cells assessed as inhibition of TNF-alpha release at 0.5 uM by ELISA", "assay_type": "functional"}, "[3]": {"experiment": "Cmax in BALB/c mouse plasma at 30 mg/kg, ig", "assay_type": "ADME, organism-based", "details": "po"}, "[4]": {"system": "Mus musculus", "experiment": "Anti-oxidative stress against amyloid beta (1-42)-induced alzheimer's disease mouse model assessed as decrease in MDA content in hippocampus at 8 to 32 mg/kg and measured on day 6", "assay_type": "functional, organism-based", "details": "dose 8-32 mg/kg, time 6.0 day"}, "[5]": {"system": "PC-12", "experiment": "Neuroprotective activity against H2O2-induced cytotoxicity in rat PC12 cells assessed as cell viability at 1 uM by MTT assay (reference value: 54.9%)", "assay_type": "functional", "details": "read-out: Activity"}, "[6]": {"experiment": "Half life in BALB/c mouse brain at 30 mg/kg, ig", "assay_type": "ADME, organism-based", "details": "po"}, "[7]": {"experiment": "Metal chelating activity assessed as compound-Fe3+ complex formation by measuring blue shift of maximum absorption peak at 37.5 uM in presence of FeCl3 by UV-Vis spectrometry"}, "[8]": {"target": "T1, Amine oxidase [flavin-containing] B (Homo sapiens, UniProt P27338)", "T1 sequence (P27338 whole entry)": "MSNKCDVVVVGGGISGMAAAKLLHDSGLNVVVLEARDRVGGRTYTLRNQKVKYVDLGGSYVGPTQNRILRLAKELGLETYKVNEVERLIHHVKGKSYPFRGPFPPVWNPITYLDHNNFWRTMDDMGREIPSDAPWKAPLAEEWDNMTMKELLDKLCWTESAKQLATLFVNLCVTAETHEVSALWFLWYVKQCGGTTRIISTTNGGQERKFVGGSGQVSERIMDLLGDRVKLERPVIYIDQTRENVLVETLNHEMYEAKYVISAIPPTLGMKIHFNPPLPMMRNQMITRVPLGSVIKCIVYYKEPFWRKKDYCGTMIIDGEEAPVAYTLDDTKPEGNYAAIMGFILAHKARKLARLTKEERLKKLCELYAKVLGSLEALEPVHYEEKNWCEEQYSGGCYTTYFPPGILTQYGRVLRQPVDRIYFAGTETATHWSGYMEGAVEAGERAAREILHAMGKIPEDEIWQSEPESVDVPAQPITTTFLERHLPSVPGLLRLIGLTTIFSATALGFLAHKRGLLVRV", "experiment": "Inhibition of human recombinant MAO-B"}, "[9]": {"target": "Amyloid-beta precursor protein (Homo sapiens) (UniProt P05067)", "sequence (P05067 whole entry)": "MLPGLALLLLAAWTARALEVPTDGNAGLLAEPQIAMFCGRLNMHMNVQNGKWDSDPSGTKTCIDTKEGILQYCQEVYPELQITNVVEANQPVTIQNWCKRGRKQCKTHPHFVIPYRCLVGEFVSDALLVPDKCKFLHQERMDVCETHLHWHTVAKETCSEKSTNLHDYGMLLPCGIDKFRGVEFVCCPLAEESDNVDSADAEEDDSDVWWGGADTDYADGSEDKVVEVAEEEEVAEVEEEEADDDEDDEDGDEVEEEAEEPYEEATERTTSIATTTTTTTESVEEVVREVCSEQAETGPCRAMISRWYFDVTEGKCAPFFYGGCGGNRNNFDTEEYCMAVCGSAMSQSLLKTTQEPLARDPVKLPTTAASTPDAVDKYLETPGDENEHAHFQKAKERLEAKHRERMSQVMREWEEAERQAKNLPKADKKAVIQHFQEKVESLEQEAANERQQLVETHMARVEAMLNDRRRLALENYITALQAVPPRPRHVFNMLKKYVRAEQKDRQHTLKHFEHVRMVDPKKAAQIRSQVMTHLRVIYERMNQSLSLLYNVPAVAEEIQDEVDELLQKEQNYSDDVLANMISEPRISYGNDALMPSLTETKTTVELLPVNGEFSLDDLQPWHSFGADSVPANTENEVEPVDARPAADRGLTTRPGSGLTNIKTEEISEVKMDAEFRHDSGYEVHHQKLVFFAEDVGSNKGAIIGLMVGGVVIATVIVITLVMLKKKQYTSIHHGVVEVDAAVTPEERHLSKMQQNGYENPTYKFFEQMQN", "experiment": "Inhibition of Cu2+-induced amyloid beta (1 to 42) (unknown origin) aggregation at 25 uM by ThT fluorescence assay"}, "[10]": {"target": "Amyloid-beta precursor protein (Homo sapiens) (UniProt P05067)", "experiment": "Inhibition of self-induced amyloid beta (1 to 42) (unknown origin) aggregation at 25 uM by ThT fluorescence assay"}, "[11]": {"target": "Amyloid-beta precursor protein (Homo sapiens) (UniProt P05067)", "experiment": "Inhibition of Cu2+-induced amyloid beta (1 to 42) (unknown origin) aggregation assessed as fewer amyloid beta (1 to 42) fibrils formation incubated for 24 hrs by transmission electron microscopy"}, "[12]": {"system": "Mus musculus", "experiment": "Antialzheimer activity against amyloid beta (1-42)-induced alzheimer's disease mouse model assessed as decrease in cognitive impairment by measuring increase in time spent in target quadrant in spatial probe trial at 8 to 32 mg/kg and measured on day 6 by Morris water maze test", "assay_type": "functional, organism-based", "details": "dose 8-32 mg/kg, time 6.0 day"}, "[13]": {"system": "BV-2", "experiment": "Antioxidant activity against LPS-stimulated mouse BV-2 cells assessed as inhibition of ROS generation by measuring decrease in fluorescence intensity at 2.5 to 10 uM by DCFH-DA staining based fluorescence microscopy", "assay_type": "functional, cell-based", "details": "dose 2.5-10 µM"}, "[14]": {"system": "BV-2", "experiment": "Anti-neuroinflammatory activity against LPS-stimulated mouse BV-2 cells assessed as inhibition of NO release at 10 uM incubated for 24 hrs by Griess reagent based assay", "assay_type": "functional"}, "[15]": {"system": "Mus musculus", "experiment": "Antialzheimer activity against amyloid beta (1-42)-induced alzheimer's disease mouse model assessed as decrease in cognitive impairment by measuring increase in number of crossing the target area in spatial probe trial at 8 to 32 mg/kg and measured on day 6 by Morris water maze test", "assay_type": "functional, organism-based", "details": "dose 8-32 mg/kg, time 6.0 day"}, "[16]": {"target": "Amyloid-beta precursor protein (Homo sapiens) (UniProt P05067)", "experiment": "Disaggregation of Cu2+-induced amyloid beta (1 to 42) (unknown origin) preformed fibrils at 25 uM by ThT fluorescence assay"}, "[17]": {"target": "T2, Amine oxidase [flavin-containing] A (Homo sapiens, UniProt P21397)", "T2 sequence (P21397 whole entry)": "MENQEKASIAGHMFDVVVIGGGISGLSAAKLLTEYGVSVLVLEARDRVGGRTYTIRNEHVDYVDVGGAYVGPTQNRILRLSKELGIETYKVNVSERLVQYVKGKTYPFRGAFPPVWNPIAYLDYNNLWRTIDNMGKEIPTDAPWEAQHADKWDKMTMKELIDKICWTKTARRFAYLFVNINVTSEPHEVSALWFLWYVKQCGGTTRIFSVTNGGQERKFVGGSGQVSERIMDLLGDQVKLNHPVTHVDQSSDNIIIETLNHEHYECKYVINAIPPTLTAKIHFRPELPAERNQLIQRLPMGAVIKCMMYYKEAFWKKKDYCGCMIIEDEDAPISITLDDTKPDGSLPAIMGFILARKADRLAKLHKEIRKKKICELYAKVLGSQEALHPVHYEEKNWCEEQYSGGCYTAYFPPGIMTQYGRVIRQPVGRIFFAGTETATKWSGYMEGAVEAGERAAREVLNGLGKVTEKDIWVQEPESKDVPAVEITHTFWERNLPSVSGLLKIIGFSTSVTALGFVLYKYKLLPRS", "experiment": "Inhibition of human recombinant MAO-A"}, "[18]": {"system": "BV-2", "experiment": "Anti-neuroinflammatory activity against LPS-stimulated mouse BV-2 cells assessed as inhibition of NO release at 2.5 uM incubated for 24 hrs by Griess reagent based assay", "assay_type": "functional"}, "[19]": {"system": "Mus musculus", "experiment": "Anti-inflammatory activity against amyloid beta (1 to 42)-induced alzheimer's disease mouse model assessed as decrease in TNF-alpha content in hippocampus at 8 to 32 mg/kg and measured on day 6", "assay_type": "functional, organism-based", "details": "dose 8-32 mg/kg, time 6.0 day"}, "[20]": {"system": "PC-12", "experiment": "Cytotoxicity against rat PC12 cells assessed as effect on cell viability at 2.5 to 25 uM by MTT assay", "assay_type": "toxicity, cell-based", "details": "pc-12, 25 µM, dose 2.5-25 µM"}, "[21]": {"target": "Amyloid-beta precursor protein (Homo sapiens) (UniProt P05067)", "experiment": "Inhibition of self-induced amyloid beta (1 to 42) (unknown origin) aggregation assessed as short and thin fibrils incubated for 24 hrs by transmission electron microscopy"}, "[22]": {"system": "BV-2", "experiment": "Anti-neuroinflammatory activity against LPS-stimulated mouse BV-2 cells assessed as inhibition of NO release at 0.5 uM incubated for 24 hrs by Griess reagent based assay", "assay_type": "functional"}, "[23]": {"experiment": "Antioxidant activity assessed as inhibition of Cu2+-induced ROS production by measuring decrease in fluorescence intensity in presence of Cu2+ and ascorbate by CCA-dye based fluorescence analysis", "assay_type": "functional"}, "[24]": {"system": "Mus musculus", "experiment": "Antialzheimer activity against amyloid beta (1-42)-induced alzheimer's disease mouse model assessed as decrease in cognitive impairment by measuring decrease in escape latency time during training phase at 8 to 32 mg/kg and measured for 5 days by Morris water maze test", "assay_type": "functional, organism-based", "details": "dose 8-32 mg/kg, time 5.0 day"}, "[25]": {"system": "BV-2", "experiment": "Anti-neuroinflammatory activity against LPS-stimulated mouse BV-2 cells assessed as inhibition of TNF-alpha release at 10 uM by ELISA", "assay_type": "functional"}, "[26]": {"system": "BV-2", "experiment": "Cytotoxicity against mouse BV-2 cells assessed as effect on cell viability at 2.5 to 25 uM by MTT assay", "assay_type": "toxicity, cell-based", "details": "bv-2, 25 µM, dose 2.5-25 µM"}}, "note": "The source made the active and inactive calls. The calls are words filed in the database; no cut-off is given here."}
{"smiles": "CCCCCCCC1OC(=O)c2cc(N3N=C(c4cc(Cl)ccc4O)CC3=O)ccc21", "note": "(stereo unspecified)", "values": [{"measurement": "Kp", "setting": "[1]", "value": 0.69}, {"measurement": "inhibition at 0.5 µM", "setting": "[2]", "value": 22.7, "unit": "%"}, {"measurement": "Cmax", "setting": "[3]", "value": 1540, "unit": "ng/mL"}, {"measurement": "Activity", "setting": "[4]", "value": "Dose-Dependent Effect"}, {"measurement": "viability at 1 µM", "setting": "[5]", "value": 66.9, "unit": "%"}, {"measurement": "half-life", "setting": "[6]", "value": 2.07, "unit": "h"}, {"measurement": "Activity", "setting": "[7]", "value": "Active"}, {"measurement": "IC50", "setting": "[8]", "value": 410, "unit": "nM"}, {"measurement": "inhibition", "setting": "[9]", "value": 57.5, "unit": "%"}, {"measurement": "inhibition", "setting": "[10]", "value": 56, "unit": "%"}, {"measurement": "inhibition", "setting": "[11]", "value": "Active"}, {"measurement": "Activity", "setting": "[12]", "value": "Active"}, {"measurement": "Activity", "setting": "[13]", "value": "Active"}, {"measurement": "inhibition at 10 µM", "setting": "[14]", "value": 76.3, "unit": "%"}, {"measurement": "Activity", "setting": "[15]", "value": "Active"}, {"measurement": "Activity", "setting": "[16]", "value": 82.4, "unit": "%"}, {"measurement": "IC50", "setting": "[17]", "value": "> 10000", "unit": "nM"}, {"measurement": "inhibition at 2.5 µM", "setting": "[18]", "value": 37.9, "unit": "%"}, {"measurement": "Activity", "setting": "[19]", "value": "Active"}, {"measurement": "Activity", "setting": "[20]", "value": "Non-Toxic"}, {"measurement": "inhibition", "setting": "[21]", "value": "Active"}, {"measurement": "inhibition at 0.5 µM", "setting": "[22]", "value": 25.9, "unit": "%"}, {"measurement": "Activity", "setting": "[23]", "value": "Active"}, {"measurement": "Activity", "setting": "[24]", "value": "Active"}, {"measurement": "inhibition at 10 µM", "setting": "[25]", "value": 71.6, "unit": "%"}, {"measurement": "Activity", "setting": "[26]", "value": "Non-Toxic"}]}
